Test system: MV-4-11 cells
Assay: Gene expression microarray analysis (Affymetrix PrimeView) and GSEA
Assay type: cell-based, human
Design: RFU PODN (11730768_x_at) / Fold change /veh PODN (11730768_x_at) / RFU LINC00158 (11744669_a_at) / Fold change /veh LINC00158 (11744669_a_at) / RFU DUSP10 (11751237_a_at) / Fold change /veh DUSP10 (11751237_a_at) / RFU ID3 (11757404_x_at) / Fold change /veh ID3 (11757404_x_at) / RFU PLEKHG5 (11737974_s_at) / Fold change /veh PLEKHG5 (11737974_s_at) / RFU LRRC4B (11730491_at) / Fold change /veh LRRC4B (11730491_at) / RFU GIMAP4 (11747438_a_at) / Fold change /veh GIMAP4 (11747438_a_at) / RFU KRT8 (11758183_x_at) / Fold change /veh KRT8 (11758183_x_at) / RFU CNN1 (11734310_a_at) / Fold change /veh CNN1 (11734310_a_at) / RFU VPS37D (11726825_at) / Fold change /veh VPS37D (11726825_at) / RFU C10orf10 (11716522_x_at) / Fold change /veh C10orf10 (11716522_x_at) / RFU KIR2DL2 /// KIR2DL4 /// KIR2DL5A /// KIR2DL5B /// KIR2DS1 /// KIR2DS2 /// KIR2DS3 /// KIR2DS4 /// KIR3DL3 /// KIR3DL3 /// KIR3DS1 (11738374_at) / Fold change /veh KIR2DL2 /// KIR2DL4 /// KIR2DL5A /// KIR2DL5B /// KIR2DS1 /// KIR2DS2 /// KIR2DS3 /// KIR2DS4 /// KIR3DL3 /// KIR3DL3 /// KIR3DS1 (11738374_at) / RFU C1QL1 (11718748_at) / Fold change /veh C1QL1 (11718748_at) / RFU TMPRSS4 (11747572_a_at) / Fold change /veh TMPRSS4 (11747572_a_at) / RFU HAMP (11756126_x_at) / Fold change /veh HAMP (11756126_x_at) / RFU RNFT2 (11725882_a_at) / Fold change /veh RNFT2 (11725882_a_at) / RFU NR4A2 (11747474_a_at) / Fold change /veh NR4A2 (11747474_a_at) / RFU ABCC12 (11746883_a_at) / Fold change /veh ABCC12 (11746883_a_at) / RFU TMEM136 (11760407_x_at) / Fold change /veh TMEM136 (11760407_x_at) / RFU CLDN22 /// WWC2 (11732394_at) / Fold change /veh CLDN22 /// WWC2 (11732394_at) / RFU HLA-DPB1 (11760878_x_at) / Fold change /veh HLA-DPB1 (11760878_x_at) / RFU SPINT1 (11716480_a_at) / Fold change /veh SPINT1 (11716480_a_at) / RFU GAP43 (11754022_s_at) / Fold change /veh GAP43 (11754022_s_at) / RFU A4GNT (11735810_at) / Fold change /veh A4GNT (11735810_at) / RFU PRB3 (11715151_x_at) / Fold change /veh PRB3 (11715151_x_at) / RFU TUBB4B (11761932_at) / Fold change /veh TUBB4B (11761932_at) / RFU CAPN14 (11732068_a_at) / Fold change /veh CAPN14 (11732068_a_at) / RFU TMCC2 (11721928_a_at) / Fold change /veh TMCC2 (11721928_a_at) / RFU IRGQ (11745062_a_at) / Fold change /veh IRGQ (11745062_a_at) / RFU FAM174B (11720279_a_at) / Fold change /veh FAM174B (11720279_a_at) / RFU TMPRSS4 (11748680_a_at) / Fold change /veh TMPRSS4 (11748680_a_at) / RFU FAM212B (11763350_a_at) / Fold change /veh FAM212B (11763350_a_at) / RFU PLEKHG5 (11743358_a_at) / Fold change /veh PLEKHG5 (11743358_a_at) / RFU ZSCAN30 (11745921_a_at) / Fold change /veh ZSCAN30 (11745921_a_at) / RFU CMKLR1 (11741424_a_at) / Fold change /veh CMKLR1 (11741424_a_at) / RFU LOC101060620 /// MAPK8IP1 (11723275_at) / Fold change /veh LOC101060620 /// MAPK8IP1 (11723275_at) / RFU SPTSSB (11747773_x_at) / Fold change /veh SPTSSB (11747773_x_at) / RFU PRSS12 (11739890_at) / Fold change /veh PRSS12 (11739890_at) / RFU BIN1 (11741810_x_at) / Fold change /veh BIN1 (11741810_x_at) / RFU WNT11 (11732464_a_at) / Fold change /veh WNT11 (11732464_a_at) / RFU C10orf10 (11716521_a_at) / Fold change /veh C10orf10 (11716521_a_at) / RFU C5orf56 (11738089_at) / Fold change /veh C5orf56 (11738089_at) / RFU CYB561 (11721691_x_at) / Fold change /veh CYB561 (11721691_x_at) / RFU ANKRD19P (11752326_a_at) / Fold change /veh ANKRD19P (11752326_a_at) / RFU OR2T12 /// OR2T33 /// OR2T8 (11738714_s_at) / Fold change /veh OR2T12 /// OR2T33 /// OR2T8 (11738714_s_at) / RFU VCAN (11748164_a_at) / Fold change /veh VCAN (11748164_a_at) / RFU JSRP1 (11732532_at) / Fold change /veh JSRP1 (11732532_at) / RFU KRTAP10-11 (11738290_x_at) / Fold change /veh KRTAP10-11 (11738290_x_at) / RFU MYO3A (11730013_a_at) / Fold change /veh MYO3A (11730013_a_at) / RFU EBF3 (11725865_a_at) / Fold change /veh EBF3 (11725865_a_at) / RFU CAMK2N1 (11719241_x_at) / Fold change /veh CAMK2N1 (11719241_x_at) / RFU C5orf56 (11738088_a_at) / Fold change /veh C5orf56 (11738088_a_at) / RFU OLFML3 (11715873_a_at) / Fold change /veh OLFML3 (11715873_a_at) / RFU LOC100653217 /// NTM (11731650_a_at) / Fold change /veh LOC100653217 /// NTM (11731650_a_at) / RFU MAPK11 (11762145_a_at) / Fold change /veh MAPK11 (11762145_a_at) / RFU FIZ1 (11724087_x_at) / Fold change /veh FIZ1 (11724087_x_at) / RFU OASL (11726364_x_at) / Fold change /veh OASL (11726364_x_at) / RFU SOX15 (11748057_x_at) / Fold change /veh SOX15 (11748057_x_at) / RFU CD79A (11719716_a_at) / Fold change /veh CD79A (11719716_a_at) / RFU HIST1H1D (11736915_at) / Fold change /veh HIST1H1D (11736915_at) / RFU CASKIN2 (11723855_a_at) / Fold change /veh CASKIN2 (11723855_a_at) / RFU LOC730098 (11760151_x_at) / Fold change /veh LOC730098 (11760151_x_at) / RFU OR4N2 (11742367_at) / Fold change /veh OR4N2 (11742367_at) / RFU PRRT2 (11749266_a_at) / Fold change /veh PRRT2 (11749266_a_at) / RFU SNX32 (11753110_a_at) / Fold change /veh SNX32 (11753110_a_at) / RFU CDHR5 (11726645_a_at) / Fold change /veh CDHR5 (11726645_a_at) / RFU RCAN1 (11760418_a_at) / Fold change /veh RCAN1 (11760418_a_at) / RFU FAM167A (11723789_a_at) / Fold change /veh FAM167A (11723789_a_at) / RFU FAM26E (11764081_at) / Fold change /veh FAM26E (11764081_at) / RFU ISYNA1 (11749810_s_at) / Fold change /veh ISYNA1 (11749810_s_at) / RFU ACY1 (11761880_at) / Fold change /veh ACY1 (11761880_at) / RFU 11764098_at / Fold change /veh 11764098_at / RFU SAMD14 (11745864_x_at) / Fold change /veh SAMD14 (11745864_x_at) / RFU NPB (11741838_a_at) / Fold change /veh NPB (11741838_a_at) / RFU TMPRSS6 (11731388_a_at) / Fold change /veh TMPRSS6 (11731388_a_at) / RFU KRTAP10-2 (11738614_at) / Fold change /veh KRTAP10-2 (11738614_at) / RFU ARHGAP8 /// PRR5-ARHGAP8 (11727945_x_at) / Fold change /veh ARHGAP8 /// PRR5-ARHGAP8 (11727945_x_at) / RFU KRTAP5-7 /// NADSYN1 (11734609_at) / Fold change /veh KRTAP5-7 /// NADSYN1 (11734609_at) / RFU RASL12 (11751679_a_at) / Fold change /veh RASL12 (11751679_a_at) / RFU CDKN2B (11736163_a_at) / Fold change /veh CDKN2B (11736163_a_at) / RFU PRF1 (11729649_at) / Fold change /veh PRF1 (11729649_at) / RFU, ZNF638 /// ZNF638-IT1 / Fold change vs veh, ZNF638 /// ZNF638-IT1 / RFU, PANK3 / Fold change vs veh, PANK3 / RFU, SH3YL1 / Fold change vs veh, SH3YL1 / RFU, ZEB2 / Fold change vs veh, ZEB2 / RFU, NRIP1 / Fold change vs veh, NRIP1 / RFU, PTTG1IP / Fold change vs veh, PTTG1IP / RFU, CAPN2 / Fold change vs veh, CAPN2 / RFU, MED14 / Fold change vs veh, MED14 / RFU, SNORA58 / Fold change vs veh, SNORA58 / RFU, C1orf63 / Fold change vs veh, C1orf63 / RFU, LRRFIP1 / Fold change vs veh, LRRFIP1 / RFU, NDUFAF7 / Fold change vs veh, NDUFAF7 / RFU, SLC12A2 / Fold change vs veh, SLC12A2 / RFU, IBTK / Fold change vs veh, IBTK / RFU, ESF1 / Fold change vs veh, ESF1 / Fold change vs veh, TMEM50B / RFU, TAOK1 / Fold change vs veh, TAOK1 / RFU, ACBD3 / Fold change vs veh, ACBD3 / RFU, TMA16 / Fold change vs veh, TMA16 / RFU, RWDD3 / Fold change vs veh, RWDD3 / RFU, BCAT1 / Fold change vs veh, BCAT1 / RFU, EDEM3 / Fold change vs veh, EDEM3 / RFU, TMEM33 / Fold change vs veh, TMEM33 / RFU, WDR75 / Fold change vs veh, WDR75 / RFU, AHCTF1 / Fold change vs veh, AHCTF1 / RFU, TFRC / Fold change vs veh, TFRC / RFU, ZDHHC17 / Fold change vs veh, ZDHHC17 / RFU, NOM1 / Fold change vs veh, NOM1 / RFU, ARL8B / Fold change vs veh, ARL8B / RFU, ZBTB11 / Fold change vs veh, ZBTB11 / RFU, TAMM41 / Fold change vs veh, TAMM41 / RFU, KIAA1704 /// LOC100996395 / Fold change vs veh, KIAA1704 /// LOC100996395 / RFU, ING1 / Fold change vs veh, ING1 / RFU, TRMT61B / Fold change vs veh, TRMT61B / RFU, FUBP3 / Fold change vs veh, FUBP3 / RFU, TP53 / Fold change vs veh, TP53 / RFU, TNKS2 / Fold change vs veh, TNKS2 / RFU, ZFP14 / Fold change vs veh, ZFP14 / RFU, ACTR2 / Fold change vs veh, ACTR2 / RFU, PPP3R1 / Fold change vs veh, PPP3R1 / RFU, PIK3R1 / Fold change vs veh, PIK3R1 / RFU, HNRNPA1 / Fold change vs veh, HNRNPA1 / RFU, RNF170 / Fold change vs veh, RNF170 / RFU, ZNF28 / Fold change vs veh, ZNF28 / RFU, RNGTT / Fold change vs veh, RNGTT / RFU, OGT / Fold change vs veh, OGT / RFU, BRD1 / Fold change vs veh, BRD1 / RFU, MARS / Fold change vs veh, MARS / RFU, ZNF655 / Fold change vs veh, ZNF655 / RFU, FAHD1 / Fold change vs veh, FAHD1 / RFU, BDP1 / Fold change vs veh, BDP1 / RFU, LRRCC1 / Fold change vs veh, LRRCC1 / RFU, ARID1A / Fold change vs veh, ARID1A / RFU, ZNF146 / Fold change vs veh, ZNF146 / RFU, ZNF330 / Fold change vs veh, ZNF330 / RFU, GPN3 / Fold change vs veh, GPN3 / RFU, C9orf123 / Fold change vs veh, C9orf123 / RFU, N4BP2L2 / Fold change vs veh, N4BP2L2 / RFU, ARFIP1 / Fold change vs veh, ARFIP1 / RFU, FAM179B / Fold change vs veh, FAM179B / RFU, BCL10 / Fold change vs veh, BCL10 / RFU, UHRF1BP1L / Fold change vs veh, UHRF1BP1L / RFU, BET1 / Fold change vs veh, BET1 / RFU, CNOT2 / Fold change vs veh, CNOT2 / RFU, ZNF268 / Fold change vs veh, ZNF268 / Fold change vs veh, ZNF507 / RFU, DGCR2 / Fold change vs veh, DGCR2 / RFU, WDSUB1 / Fold change vs veh, WDSUB1 / Fold change vs veh, HSP90B1 /// MIR3652 / RFU, ADSS / Fold change vs veh, ADSS / RFU, GK / Fold change vs veh, GK / RFU, ZNF148 / Fold change vs veh, ZNF148 / RFU, TAF9 / Fold change vs veh, TAF9 / RFU, SLC1A5 / Fold change vs veh, SLC1A5 / RFU, SLMO2 / Fold change vs veh, SLMO2 / RFU, ABCC4 / Fold change vs veh, ABCC4 / RFU, LOC101060439 /// RAP1B / Fold change vs veh, LOC101060439 /// RAP1B / RFU, RFX7 / Fold change vs veh, RFX7 / RFU, GTPBP10 / Fold change vs veh, GTPBP10 / RFU, CNEP1R1 / Fold change vs veh, CNEP1R1 / RFU, BIVM-ERCC5 /// ERCC5 / Fold change vs veh, BIVM-ERCC5 /// ERCC5 / RFU, ILF3 / Fold change vs veh, ILF3 / RFU 11762660_at / Fold change /veh 11762660_at / RFU VCAN (11757783_s_at) / Fold change /veh VCAN (11757783_s_at) / RFU DDX43 (11728927_at) / Fold change /veh DDX43 (11728927_at) / RFU KRT8 (11758188_x_at) / Fold change /veh KRT8 (11758188_x_at) / RFU NKD1 (11759106_at) / Fold change /veh NKD1 (11759106_at) / RFU SRD5A1 (11742802_a_at) / Fold change /veh SRD5A1 (11742802_a_at) / RFU TPSAB1 /// TPSB2 (11721975_s_at) / Fold change /veh TPSAB1 /// TPSB2 (11721975_s_at) / RFU GSTM3 (11746129_a_at) / Fold change /veh GSTM3 (11746129_a_at) / RFU IL23R (11737362_x_at) / Fold change /veh IL23R (11737362_x_at) / RFU TMEM51 (11727254_a_at) / Fold change /veh TMEM51 (11727254_a_at) / RFU PIWIL2 (11732686_x_at) / Fold change /veh PIWIL2 (11732686_x_at) / RFU ORM1 (11744905_x_at) / Fold change /veh ORM1 (11744905_x_at) / RFU CCDC152 (11743942_at) / Fold change /veh CCDC152 (11743942_at) / RFU ECM1 (11717891_a_at) / Fold change /veh ECM1 (11717891_a_at) / RFU IL23R (11748794_a_at) / Fold change /veh IL23R (11748794_a_at) / RFU TNFAIP8L3 (11732012_x_at) / Fold change /veh TNFAIP8L3 (11732012_x_at) / RFU MBOAT4 (11741988_at) / Fold change /veh MBOAT4 (11741988_at) / RFU 11764193_at / Fold change /veh 11764193_at / RFU TMEM53 (11763286_at) / Fold change /veh TMEM53 (11763286_at) / RFU MAGEB2 (11727129_at) / Fold change /veh MAGEB2 (11727129_at) / RFU TMEM200A (11744735_a_at) / Fold change /veh TMEM200A (11744735_a_at) / RFU CCDC152 (11751479_a_at) / Fold change /veh CCDC152 (11751479_a_at) / RFU FAM211A (11726209_a_at) / Fold change /veh FAM211A (11726209_a_at) / RFU RGS16 (11746705_a_at) / Fold change /veh RGS16 (11746705_a_at) / RFU VCAN (11755009_s_at) / Fold change /veh VCAN (11755009_s_at) / RFU RHOB (11743442_s_at) / Fold change /veh RHOB (11743442_s_at) / RFU RGS16 (11720943_a_at) / Fold change /veh RGS16 (11720943_a_at) / RFU RGS16 (11720944_at) / Fold change /veh RGS16 (11720944_at) / RFU, VPS4B / Fold change vs veh, VPS4B / RFU, CREB1 / Fold change vs veh, CREB1 / RFU, DNAJC13 / Fold change vs veh, DNAJC13 / RFU, GNAQ / Fold change vs veh, GNAQ / RFU, CDK5R1 / Fold change vs veh, CDK5R1 / RFU, ZRANB3 / Fold change vs veh, ZRANB3 / RFU, CUL4A / Fold change vs veh, CUL4A / RFU, CCNY / Fold change vs veh, CCNY / RFU, UFL1 / Fold change vs veh, UFL1 / RFU, COG3 / Fold change vs veh, COG3 / RFU, DIAPH2 / Fold change vs veh, DIAPH2 / RFU, SKA2 / Fold change vs veh, SKA2 / RFU, AFF3 / Fold change vs veh, AFF3 / RFU, LMF1 / Fold change vs veh, LMF1 / RFU, IPO11 / Fold change vs veh, IPO11 / RFU, DFFB / Fold change vs veh, DFFB / RFU, FOXP1 / Fold change vs veh, FOXP1 / RFU, CARD8 / Fold change vs veh, CARD8 / RFU, STRN3 / Fold change vs veh, STRN3 / RFU, ADK / Fold change vs veh, ADK / RFU, RASSF2 / Fold change vs veh, RASSF2 / RFU, WIPF1 / Fold change vs veh, WIPF1 / RFU, LARP1B / Fold change vs veh, LARP1B / RFU, RASA1 / Fold change vs veh, RASA1 / RFU, RB1 / Fold change vs veh, RB1 / RFU, PPFIA1 / Fold change vs veh, PPFIA1 / RFU, MAT2A / Fold change vs veh, MAT2A / RFU, CCT5 / Fold change vs veh, CCT5 / RFU, WDR92 / Fold change vs veh, WDR92 / RFU, CUX1 / Fold change vs veh, CUX1 / RFU, TTC7A / Fold change vs veh, TTC7A / RFU, TMEM135 / Fold change vs veh, TMEM135 / RFU, DEPTOR / Fold change vs veh, DEPTOR / RFU, CPM / Fold change vs veh, CPM / RFU, DNAJB6 / Fold change vs veh, DNAJB6 / RFU, CACNA2D3 / Fold change vs veh, CACNA2D3 / RFU, DTX4 / Fold change vs veh, DTX4 / RFU, TFCP2 / Fold change vs veh, TFCP2 / RFU, GMCL1 /// GMCL1P1 / Fold change vs veh, GMCL1 /// GMCL1P1 / RFU, AEBP2 / Fold change vs veh, AEBP2 / RFU, SNHG1 /// SNORD22 /// SNORD25 /// SNORD26 /// SNORD27 /// SNORD28 /// SNORD29 /// SNORD31 / Fold change vs veh, SNHG1 /// SNORD22 /// SNORD25 /// SNORD26 /// SNORD27 /// SNORD28 /// SNORD29 /// SNORD31 / Fold change (Aza/veh), C12orf56 (ProbeSet 11735607_a_at) / Fold change (ACY-1035/veh), C12orf56 (ProbeSet 11735607_a_at) / Fold change (Aza/veh), FGFR1OP (ProbeSet 11751329_s_at) / Fold change (ACY-1035/veh), FGFR1OP (ProbeSet 11751329_s_at) / Fold change (Aza/veh), VPS36 (ProbeSet 11739960_a_at) / Fold change (ACY-1035/veh), VPS36 (ProbeSet 11739960_a_at) / RFU SYPL1 (11715823_x_at) / Fold change /veh SYPL1 (11715823_x_at) / RFU IGFBP7 (11715501_s_at) / Fold change /veh IGFBP7 (11715501_s_at) / RFU REEP3 (11722064_at) / Fold change /veh REEP3 (11722064_at) / RFU IGLL1 (11728026_x_at) / Fold change /veh IGLL1 (11728026_x_at): dose or concentration left out as unconfirmed
Settings: gene C12orf56; ACY-1035 vs DMSO; LIST F

How did the “Fold change (ACY-1035/veh), C12orf56 (ProbeSet 11735607_a_at)” value turn out when `Nc1ccc(-c2cccs2)cc1NC(=O)c1ccc2c(c1)cc(C1CC1)n2CCN1CCOCC1` [ACY-1035] was run?
Its value is 0.39.

— paper PMC5218480 (PLoS ONE, 2017)
